Assay results from patent US9656953B2, “Inhibition of cell proliferation” (University of South Florida, priority 2005, dated 2017).
“Also recorded” adds a separate entry of the source.

Assays:
Rb binding to E2F1 = target: T1, Rb binding to E2F1 (Homo sapiens, UniProt P06400+Q01094); assay: IP-western, A-549 cells, Rb-E2F1; type: cell-based
T1 construct: endogenous in cells; host or cells: A549
From the text: (§1) Lysate preparation, pmmunoprecipitation, and pestern plotting.

A549-sh6 tumors = assay: A549-sh6 (Rb shRNA) xenograft in nude mice; type: in vivo; conditions: 150 mpk orally
Method: Animal Studies. Nude mice (Charles River, Wilminton, Mass., USA) were maintained in accordance with Institutional Animal Care and Use Committee (IAUCUC) procedures and guidelines. A549 cells were harvested and resuspended in PBS, and then injected s.c. into the right and left flanks (10×10^6 cells per flank) of 8-week old female nude mice as reported previously (Sun 99). When tumors reached about 100-200 mm^3, animals were dosed intraperitoneally i.p. or orally by gavage with 0.1 mL solution once daily. Control animals received a vehicle, whereas treated animals were given 3a or RRD-238a at the indicated doses. The tumor volumes were determined by measuring the length (l) and the width (w) and calculating the volume (V=lw^2/2) as described previously (Sun 99). Statistical significance between control and treated animals were evaluated using Student's t-test.
Athymic nude mice were implanted with 1×10^7 A549 cells bilaterally and the tumors were allowed to reach 200 mm^3 in size before treatment began. […] Furthermore, to examine whether 3a could affect the growth of tumors lacking Rb in vivo, sh6 and sh8 (shRNA for Rb) cell lines were implanted into the flanks of nude mice. The mice were given 3a orally at 150 mpk and the control groups were administered the vehicle.

SK-MEL-28 cells = assay: Soft agar assay, SK-MEL-28; type: cell-based
Method: (§2) Soft Agar Assay. Soft agar assays were done in triplicate in 12-well plates (Corning, Corning N.Y.). First, the bottom layer of agar (0.6%) was allowed to solidify at room temperature. Next the top layer of agar was (0.3%) was mixed with 5,000 cells per well and the indicated drug. The drugs were added twice weekly in complete media to the agar wells. Colonies were quantified by staining with MTT (3-(4,5-Dimethylthiazol-2-yl)-2,5-diphenyltetrazolium bromide) 1 mg/mL for 1 hour at 37° C.
(§3) Experiments were also carried out to examine the effect of 3a in inhibiting the adherence-independent growth of cancer cells in soft agar.

[1] = tested on: binding of Raf-1 to Mek1/2; assay: IP-western, A-549 cells, Raf-1-Mek1/2; type: cell-based, human
From the text: as §1

[2] = tested on: Rb phosphorylation (serines 807 and 811); assay: Western blot of Rb phosphorylation, A549 cells; type: cell-based, human; conditions: cells treated 18 hours, western blotting
From the text: as §1

H1650 cells = assay: Soft agar assay, H1650; type: cell-based
Method: as §2, §3

A549 tumors = assay: Immunohistochemistry staining of A549 xenograft tumors; type: in vivo, nude mice; conditions: A549 tumors at end of treatment
From the text: Immunohistochemistry staining. Upon termination of xenograft anti-tumor experiments, tumors were removed and fixed in 10% neutral-buffered formalin before processing into paraffin blocks. Tissue sections (5 micrometers (μm) thick) were cut from the blocks and stained with Ki-67, CD31, TUNEL, and phospho-Rb antibodies. Paraffin sections were rehydrated to PBS and processed using the following protocols. Sections were rinsed in dH2O, and then subjected to microwave ‘antigen retrieval’ for 20 minutes on 70% power, with a 1 minute cooling period after every 5 minutes, in 0.01 M sodium citrate, pH 6.0 (Janssen P J, Brinkmann A O, Boersma W J, Van der Kwast T H. J Histochem Cytochem 1994; 42(8):1169-75; Shi S R, Key M E, Kalra K L. J Histochem Cytochem 1991; 39(6):741-748). Sections were cooled for 20 minutes, rinsed 3 times in dH2O, twice in PBS and incubated in 5% normal goat serum for 30 minutes. Sections were incubated in primary antibody for 1 hour in 5% normal goat serum, rinsed 3 times in PBS. For color development the slides were treated with ABC kit (Vector Labs, Burlingame, Calif.) rinsed in dH2O, and developed using DAB as chromogen. After a final rinse in dH2O, sections were lightly counterstained in hematoxylin, dehydrated, cleared and coverslipped. Tissue sections were stained with hematoxylin and eosin (H&E) using standard histological techniques. Tissue sections were also subjected to immunostaining for CD31 (BD Biosciences, San Diego, Calif., USA) using the avidin-biotin peroxidase complex technique. Mouse monoclonal antibody was used at 1:50 dilution following microwave antigen retrieval (four cycles of 5 min each on high in 0.1 M citrate buffer). Apoptotic cells were detected using DeadEnd Colorimetric TUNEL system (Promega, Madison, Wis.).
At the end of the drug treatment, the A549 tumors were removed from the mice and fixed in formalin or snap frozen in liquid nitrogen for further histochemical analysis. The tumors were analyzed by immunohistochemistry staining with hematoxylin and eosin (H&E), TUNEL, Ki-67, phospho-Rb (807,811), and CD-31. […] Tumors were homogenized and lysates were prepared to assess the inhibition of Rb:Raf-1 interaction in vivo.

[3] = tested on: U87MG glioblastoma cell line; assay: BrdU incorporation, S-phase entry, U87MG; type: cell-based; conditions: null for p16 and PTEN
Method: (§4) Proliferation assays. Bromodeoxyuridine (BrdU) labeling kits were obtained from Roche Biochemicals (Indianapolis, Ind.). Cells were plated in poly-D-lysine coated chamber slides at a density of 10,000 cells per well and rendered quiescent by serum starvation for 24 hours. Cells were then re-stimulated with serum in the presence or absence of the indicated drugs for 18 h. S-phase cells were visualized by microscopy and quantitated by counting 3 fields of 100 in quadruplicate.

PC3 prostate cell line = assay: BrdU proliferation assay, PC3; type: cell-based
Method: as §4
Prostate cell lines LNCaP and PC3 both contain mutations in K-Ras and PTEN genes.

[4] = tested on: A549 cells infected with Ad-E2F1; assay: BrdU incorporation, A549 infected with Ad-E2F1; type: cell-based, human; conditions: 20 μM of 3a for 36 h
Method: as §4
To this end, A549 cells were infected with Ad-E2F1 or Ad-cyclin D, in the presence of 20 μM of 3a for 36 h. Ad-GFP infected cells were used as a control.

cyclin D = assay: Western/IP-western, cyclin D level and association with Rb; type: cell-based, human; conditions: IP-western
From the text: as §1

H1650 tumors = assay: H1650 xenograft in nude mice; type: in vivo

T1 sequence (P06400 whole entry): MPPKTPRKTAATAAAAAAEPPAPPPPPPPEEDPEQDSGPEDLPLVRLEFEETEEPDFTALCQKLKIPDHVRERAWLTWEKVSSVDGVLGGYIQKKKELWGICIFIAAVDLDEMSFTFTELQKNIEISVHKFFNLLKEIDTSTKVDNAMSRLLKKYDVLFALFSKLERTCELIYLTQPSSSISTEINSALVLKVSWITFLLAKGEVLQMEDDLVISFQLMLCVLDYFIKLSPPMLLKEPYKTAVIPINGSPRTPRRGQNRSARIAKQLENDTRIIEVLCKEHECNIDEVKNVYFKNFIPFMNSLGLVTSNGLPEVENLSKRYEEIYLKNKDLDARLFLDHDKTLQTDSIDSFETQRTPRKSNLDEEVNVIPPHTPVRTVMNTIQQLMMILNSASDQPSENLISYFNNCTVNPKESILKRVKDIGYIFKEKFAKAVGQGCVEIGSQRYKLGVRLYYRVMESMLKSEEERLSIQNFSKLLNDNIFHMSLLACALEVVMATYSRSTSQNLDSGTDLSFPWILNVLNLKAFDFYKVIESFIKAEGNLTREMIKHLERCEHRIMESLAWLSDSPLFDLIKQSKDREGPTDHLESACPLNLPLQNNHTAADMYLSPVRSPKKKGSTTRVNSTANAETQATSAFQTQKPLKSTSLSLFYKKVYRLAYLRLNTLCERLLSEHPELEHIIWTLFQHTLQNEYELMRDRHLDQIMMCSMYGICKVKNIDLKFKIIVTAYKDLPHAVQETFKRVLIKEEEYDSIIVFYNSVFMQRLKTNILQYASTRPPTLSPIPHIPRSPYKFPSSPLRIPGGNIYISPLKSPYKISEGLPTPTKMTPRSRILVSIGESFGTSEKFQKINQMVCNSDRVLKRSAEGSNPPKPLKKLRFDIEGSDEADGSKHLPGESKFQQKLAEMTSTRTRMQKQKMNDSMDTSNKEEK
T1 sequence (Q01094 whole entry): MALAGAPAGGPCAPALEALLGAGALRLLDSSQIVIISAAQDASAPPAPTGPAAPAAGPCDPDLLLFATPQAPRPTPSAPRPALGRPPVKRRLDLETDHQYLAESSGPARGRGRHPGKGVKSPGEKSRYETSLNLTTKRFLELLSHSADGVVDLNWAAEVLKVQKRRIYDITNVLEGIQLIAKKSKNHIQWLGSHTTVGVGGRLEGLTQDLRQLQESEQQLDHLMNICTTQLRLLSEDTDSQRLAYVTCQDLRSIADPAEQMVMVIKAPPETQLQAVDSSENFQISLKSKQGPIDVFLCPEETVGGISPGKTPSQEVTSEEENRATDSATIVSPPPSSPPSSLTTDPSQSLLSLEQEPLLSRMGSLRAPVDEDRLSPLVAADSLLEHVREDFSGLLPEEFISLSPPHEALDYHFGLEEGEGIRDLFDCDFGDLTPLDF

Cl.N=C(N)SCc1ccc(Cl)cc1Cl [Compound 3a]
Rb binding to E2F1 (Rb binding to E2F1): not affected | tumor growth, A549-sh6 tumors lacking Rb (A549-sh6 tumors): unable to inhibit tumor growth; also recorded: did not respond | adherence-independent growth in soft agar, SK-MEL-28 (SK-MEL-28 cells): significantly inhibited the growth | serum-mediated binding of Raf-1 to Mek1/2 [1]: not affected | Rb phosphorylation [2]: reduced Rb phosphorylation significantly; also recorded: marked reduction in Rb phosphorylation | adherence-independent growth in soft agar, H1650 (H1650 cells): significantly inhibited the growth | apoptosis, TUNEL staining of tumors (A549 tumors): dose dependent increase in apoptosis | microvasculature, CD31 staining of tumors (A549 tumors): reduction in microvasculature | phospho-Rb staining of tumors (A549 tumors): reduction in phosphorylation of Rb | proliferation, Ki-67 staining of tumors (A549 tumors): significant inhibition of proliferation | S-phase entry, U87MG [3]: inhibited S-phase entry | inhibition of proliferation, PC3 (PC3 prostate cell line): 35% | rescue of anti-proliferative activity by E2F1 over expression [4]: sufficient to overcome; also recorded: efficiently overcame the anti-proliferative activity | level of cyclin D and its association with Rb (cyclin D): tended to reduce the levels of cyclin D as well as its association with Rb; also recorded: reduced | H1650 tumor growth in words (H1650 tumors; 50 mpk i.p.): inhibited H1650 xenograft tumor growth; also recorded: inhibited the growth of these tumors significantly | tumor size, H1650 xenograft (H1650 tumors; 50 mpk/day i.p., vehicle 2185±326 mm^3): 557±76 mm3
